This test deals with MDA-MB-435 TRAIL potentiation, ATPlite cytotoxicity, 24 h. Put plainly: PubChem AID 1773. The note with it: stronger effect = higher value.

In the case of `CSc1nc(-c2ccc(C)cc2)nc(C(Cl)Cl)n1`, the cytotoxicity is 50% (at 5 µM); 84% (compound 2.5 uM plus TRAIL 10, at 2.5 µM); -1% (compound alone cytotoxicity, at 5 µM); 83% (compound plus 100 ng/mL TRAIL, at 5 µM). In addition, the cytotoxicity with 30 ng/mL TRAIL (at 5 µM) is 91%.

The values above are taken from PubChem BioAssay AID1773 (Sanford-Burnham Center for Chemical Genomics, 2009).
